From US10294202B2, “Pyrrolidinones as herbicides” (FMC Corporation, priority 2013, dated 2019)

Tests used:
field poppy = experiment: Test D pre-/postemergence herbicide test; type: in vivo, Papaver rhoeas; conditions: for Plant response rating: Field Poppy, scale 0 to 100; for Plant response rating, Field Poppy: scale 0 to 100 (0 no effect, 100 complete control)
Source text: (§1) Seeds of plant species selected from bluegrass (annual bluegrass, Poa annua), blackgrass (Alopecurus myosuroides), canarygrass (littleseed canarygrass, Phalaris minor), chickweed (common chickweed, Stellaria media), galium (catchweed bedstraw, Galium aparine), bromegrass, downy (downy bromegrass, Bromus tectorum), field poppy (Papaver rhoeas), field violet (Viola arvensis), foxtail, green (green foxtail, Setaria viridis), deadnettle (henbit deadnettle, Lamium amplexicaule), ryegrass, Italian (Italian ryegrass, Lolium multiflorum), kochia (Kochia scoparia), lambsquarters (Chenopodium album), oilseed rape (Brassica napus), pigweed (Amaranthus retroflexus), chamomile (scentless chamomile, Matricaria inodora), Russian thistle (Salsola kali), speedwell (bird's-eye speedwell, Veronica persica), barley, spring (spring barley, Hordeum vulgare), wheat, spring (spring wheat, Triticum aestivum), buckwheat, wild (wild buckwheat, Polygonum convolvulus), mustard, wild (wild mustard, Sinapis arvensis), oat, wild (wild oat, Avena fatua), radish, wild (wild radish, Raphanus raphanistrum), […]), barley, winter (winter barley, Hordeum vulgare), and wheat, winter (winter wheat, Triticum aestivum) were planted into a silt loam soil and treated preemergence with test chemicals formulated in a non-phytotoxic solvent mixture which included a surfactant. At the same time, these species were planted in pots containing Redi-Earth® planting medium (Scotts Company, 14111 Scottslawn Road, Marysville, Ohio 43041) comprising spaghnum peat moss, vermiculite, wetting agent and starter nutrients and treated with postemergence applications of the test chemicals formulated in the same manner. Plants ranged in height from 2 to 18 cm (1- to 4-leaf stage). Treated plants and controls were maintained in a controlled growth environment for 7 to 21 days after which time all species were compared to controls and visually evaluated. Plant response ratings, summarized in Table D, are based on a scale of 0 to 100 where 0 is no effect and 100 is complete control. A dash (-) response means no test result.

bermudagrass = experiment: Test C pre-/postemergence herbicide test; type: in vivo, Cynodon dactylon
Source text: Seeds of plant species selected from blackgrass (Alopecurus myosuroides), ryegrass, Italian (Italian ryegrass, Lolium multiflorum), wheat (winter wheat, Triticum aestivum), galium (catchweed bedstraw, Galium aparine), corn (Zea mays), crabgrass, large (large crabgrass, Digitaria sanguinalis), foxtail, giant (giant foxtail, Setaria faberii), johnsongrass (Sorghum halepense), lambsquarters (Chenopodium album), morningglory (Ipomoea coccinea), nutsedge, yellow (yellow nutsedge, Cyperus esculentus), pigweed (Amaranthus retroflexus), ragweed (common ragweed, Ambrosia elatior), soybean (Glycine max), barnyardgrass (Echinochloa crus-galli), oilseed rape (Brassica napus), waterhemp (common waterhemp, Amaranthus rudis), kochia (Kochia scoparia), oat, wild (wild oat, Avena fatua), surinam grass (Brachiaria decumbens), foxtail, green (green foxtail, Setaria viridis), goosegrass (Eleusine indica), bromegrass, downy (downy bromegrass, Bromus tectorum), nightshade (eastern black nightshade, Solanum ptycanthum), cocklebur (common cocklebur, Xanthium strumarium), cupgrass, woolly (woolly cupgrass, Eriochloa villosa), bermudagrass (Cynodon dactylon), sunflower, (common oilseed sunflower, Helianthus annuus), Russian thistle (Salsola kali) and velvetleaf (Abutilon theophrasti) were planted into a blend of loam soil and sand and treated preemergence with test chemicals formulated in a non-phytotoxic solvent mixture which included a surfactant. At the same time, plants selected from these crop and weed species and also barley (winter barley, Hordeum vulgare), […]), chickweed (common chickweed, Stellaria media), deadnettle (henbit deadnettle, Lamium amplexicaule), and canarygrass (littleseed canarygrass, Phalaris minor) were planted in pots containing Redi-Earth® planting medium (Scotts Company, 14111 Scottslawn Road, Marysville, Ohio 43041) comprising spaghnum peat moss, vermiculite, wetting agent and starter nutrients and treated with postemergence applications of test chemicals formulated in the same manner. Plants ranged in height from 2 to 18 cm (1- to 4-leaf stage) for postemergence treatments. Treated plants and controls were maintained in a greenhouse for 13 to 15 days, after which time all species were compared to controls and visually evaluated. Plant response ratings, summarized in Table C, are based on a scale of 0 to 100 where 0 is no effect and 100 is complete control. A dash (-) response means no test result.

buckwheat, wild = experiment: Test D pre-/postemergence herbicide test; type: in vivo, Polygonum convolvulus; conditions: for Plant response rating: Buckwheat, Wild, scale 0 to 100; for Plant response rating, Buckwheat, Wild: scale 0 to 100 (0 no effect, 100 complete control)
Source text: as §1

[1] = Postemergence, 31 g ai/ha, scale 0 (no effect) to 100 (complete control)
[2] = Postemergence, 62 g ai/ha, scale 0 to 100 (0 no effect, 100 complete control)
[3] = Postemergence, 125 g ai/ha, scale 0 to 100 (0 no effect, 100 complete control)
[4] = Postemergence, 250 g ai/ha, scale 0 to 100 (0 no effect, 100 complete control)
[5] = Preemergence, 62 g ai/ha, scale 0 to 100
[6] = Preemergence, 125 g ai/ha, scale 0 to 100 (0 no effect, 100 complete control)
[7] = Preemergence, 31 g ai/ha, scale 0 to 100 (0 no effect, 100 complete control)
[8] = Preemergence, 250 g ai/ha, scale 0 to 100 (0 no effect, 100 complete control)

## O=C1NCC(c2ccc(Cl)c(F)c2)C1C(=O)Nc1cccc(F)c1F (stereo not drawn) [Compound 52]
Field poppy; Postemergence, 16 g ai/ha
  Plant response rating: 0
Field poppy; Postemergence, 31 g ai/ha
  Plant response rating: 0
Field poppy; Postemergence, 62 g ai/ha
  Plant response rating: 0
Field poppy; Postemergence, 125 g ai/ha
  Plant response rating: 0
Field poppy; Postemergence, 250 g ai/ha
  Plant response rating: 0
Field poppy; Preemergence, 62 g ai/ha
  Plant response rating, Field Poppy: 50
Field poppy; Preemergence, 16 g ai/ha
  Plant response rating, Field Poppy: 30
Field poppy; Preemergence, 31 g ai/ha
  Plant response rating, Field Poppy: 50
Field poppy; Preemergence, 250 g ai/ha
  Plant response rating: 80
bermudagrass; [1]
  Plant response rating, Bermudagrass: 0
bermudagrass; [2]
  Plant response rating, Bermudagrass: 0
bermudagrass; [3]
  Plant response rating, Bermudagrass: 0
bermudagrass; [4]
  Plant response rating, Bermudagrass: 10
bermudagrass; [5]
  Plant response rating, Bermudagrass: 40
bermudagrass; [6]
  Plant response rating, Bermudagrass: 40
bermudagrass; [7]
  Bermudagrass plant response rating: 0
bermudagrass; [8]
  Plant response rating, Bermudagrass: 65
buckwheat, wild; Postemergence, 16 g ai/ha
  Plant response rating: 0
buckwheat, wild; Postemergence, 31 g ai/ha
  Plant response rating: 0
buckwheat, wild; Postemergence, 62 g ai/ha
  Plant response rating: 0
buckwheat, wild; Postemergence, 125 g ai/ha
  Plant response rating: 0
buckwheat, wild; Postemergence, 250 g ai/ha
  Plant response rating: 0
buckwheat, wild; Preemergence, 62 g ai/ha
  Plant response rating, Buckwheat, Wild: 0
buckwheat, wild; Preemergence, 16 g ai/ha
  Plant response rating, Buckwheat, Wild: 0
buckwheat, wild; Preemergence, 31 g ai/ha
  Plant response rating, Buckwheat, Wild: 0
buckwheat, wild; Preemergence, 125 g ai/ha
  Plant response rating: 10
buckwheat, wild; Preemergence, 250 g ai/ha
  Plant response rating: 10

## O=C1NCC(c2ccc(F)c(C(F)(F)F)c2)C1C(=O)Nc1cccc(F)c1F (racemic) [Compound 77]
Field poppy; Preemergence, 62 g ai/ha
  Plant response rating, Field Poppy: 90
Field poppy; Preemergence, 31 g ai/ha
  Plant response rating, Field Poppy: 75
Field poppy; Preemergence, 125 g ai/ha
  Plant response rating: 95
Field poppy; Preemergence, 250 g ai/ha
  Plant response rating: 100
buckwheat, wild; Preemergence, 62 g ai/ha
  Plant response rating, Buckwheat, Wild: 75
buckwheat, wild; Preemergence, 31 g ai/ha
  Plant response rating, Buckwheat, Wild: 0
buckwheat, wild; Preemergence, 125 g ai/ha
  Plant response rating: 55
buckwheat, wild; Preemergence, 250 g ai/ha
  Plant response rating: 55

## O=C1NCC(c2cc(F)c(F)cc2F)C1C(=O)Nc1cccc(F)c1F (stereo not drawn) [Compound 50]
Field poppy; Postemergence, 16 g ai/ha
  Plant response rating: 0
Field poppy; Postemergence, 31 g ai/ha
  Plant response rating: 0
Field poppy; Postemergence, 62 g ai/ha
  Plant response rating: 0
Field poppy; Postemergence, 125 g ai/ha
  Plant response rating: 0
Field poppy; Preemergence, 62 g ai/ha
  Plant response rating, Field Poppy: 0
Field poppy; Preemergence, 16 g ai/ha
  Plant response rating, Field Poppy: 0
Field poppy; Preemergence, 31 g ai/ha
  Plant response rating, Field Poppy: 50
Field poppy; Preemergence, 125 g ai/ha
  Plant response rating: 65
bermudagrass; [1]
  Plant response rating, Bermudagrass: 0
bermudagrass; [2]
  Plant response rating, Bermudagrass: 0
bermudagrass; [3]
  Plant response rating, Bermudagrass: 0
bermudagrass; [4]
  Plant response rating, Bermudagrass: 0
buckwheat, wild; Postemergence, 16 g ai/ha
  Plant response rating: 10
buckwheat, wild; Postemergence, 31 g ai/ha
  Plant response rating: 10
buckwheat, wild; Postemergence, 62 g ai/ha
  Plant response rating: 10
buckwheat, wild; Postemergence, 125 g ai/ha
  Plant response rating: 10
buckwheat, wild; Preemergence, 62 g ai/ha
  Plant response rating, Buckwheat, Wild: 0
buckwheat, wild; Preemergence, 16 g ai/ha
  Plant response rating, Buckwheat, Wild: 0
buckwheat, wild; Preemergence, 31 g ai/ha
  Plant response rating, Buckwheat, Wild: 0

## O=C1NCC(c2ccc(C(F)(F)F)cc2)C1C(=O)Nc1ccccc1F (stereo not drawn) [Compound 231]
Field poppy; Postemergence, 31 g ai/ha
  Plant response rating: 0
Field poppy; Postemergence, 62 g ai/ha
  Plant response rating: 20
Field poppy; Postemergence, 125 g ai/ha
  Plant response rating: 0
Field poppy; Postemergence, 250 g ai/ha
  Plant response rating: 50
Field poppy; Preemergence, 62 g ai/ha
  Plant response rating, Field Poppy: 80
Field poppy; Preemergence, 125 g ai/ha
  Plant response rating, Field Poppy: 100
Field poppy; Preemergence, 31 g ai/ha
  Plant response rating, Field Poppy: 80
Field poppy; Preemergence, 250 g ai/ha
  Plant response rating: 95
buckwheat, wild; Postemergence, 31 g ai/ha
  Plant response rating: 0
buckwheat, wild; Postemergence, 62 g ai/ha
  Plant response rating: 0
buckwheat, wild; Postemergence, 125 g ai/ha
  Plant response rating: 0
buckwheat, wild; Postemergence, 250 g ai/ha
  Plant response rating: 0
buckwheat, wild; Preemergence, 62 g ai/ha
  Plant response rating, Buckwheat, Wild: 0
buckwheat, wild; Preemergence, 125 g ai/ha
  Plant response rating, Buckwheat, Wild: 0
buckwheat, wild; Preemergence, 31 g ai/ha
  Plant response rating, Buckwheat, Wild: 0
buckwheat, wild; Preemergence, 250 g ai/ha
  Plant response rating: 10

## O=C1NCC(c2ccc(F)c(Cl)c2)C1C(=O)Nc1ccccc1F (stereo not drawn) [Compound 60]
bermudagrass; [1]
  Plant response rating, Bermudagrass: 0
bermudagrass; [2]
  Plant response rating, Bermudagrass: 0
bermudagrass; [3]
  Plant response rating, Bermudagrass: 0
bermudagrass; [5]
  Plant response rating, Bermudagrass: 0
bermudagrass; [6]
  Plant response rating, Bermudagrass: 0
bermudagrass; [7]
  Bermudagrass plant response rating: 0

## O=C1NCCC1C(=O)N(c1ccc(F)c(F)c1)c1ccccc1F (stereo not drawn) [Compound 5, N-(3,4-difluorophenyl)-N-(2-fluorophenyl)-2-oxo-3-pyrrolidinecarboxamide]
bermudagrass; [5]
  Plant response rating, Bermudagrass: 0
bermudagrass; [6]
  Plant response rating, Bermudagrass: 20
bermudagrass; [7]
  Bermudagrass plant response rating: 0
bermudagrass; [8]
  Plant response rating, Bermudagrass: 45

## O=C1NCC(c2ccc(F)c(F)c2)C1C(=O)Nc1ccccc1C(F)(F)F (racemic) [Compound 6]
Field poppy; Postemergence, 16 g ai/ha
  Plant response rating: 0
Field poppy; Postemergence, 31 g ai/ha
  Plant response rating: 0
Field poppy; Postemergence, 62 g ai/ha
  Plant response rating: 20
Field poppy; Postemergence, 125 g ai/ha
  Plant response rating: 20
Field poppy; Postemergence, 250 g ai/ha
  Plant response rating: 30
Field poppy; Preemergence, 62 g ai/ha
  Plant response rating, Field Poppy: 0
Field poppy; Preemergence, 31 g ai/ha
  Plant response rating, Field Poppy: 0
Field poppy; Preemergence, 125 g ai/ha
  Plant response rating: 0
Field poppy; Preemergence, 250 g ai/ha
  Plant response rating: 100
buckwheat, wild; Postemergence, 16 g ai/ha
  Plant response rating: 0
buckwheat, wild; Postemergence, 31 g ai/ha
  Plant response rating: 0
buckwheat, wild; Postemergence, 62 g ai/ha
  Plant response rating: 0
buckwheat, wild; Postemergence, 125 g ai/ha
  Plant response rating: 0
buckwheat, wild; Postemergence, 250 g ai/ha
  Plant response rating: 10
buckwheat, wild; Preemergence, 62 g ai/ha
  Plant response rating, Buckwheat, Wild: 0
buckwheat, wild; Preemergence, 16 g ai/ha
  Plant response rating, Buckwheat, Wild: 0
buckwheat, wild; Preemergence, 31 g ai/ha
  Plant response rating, Buckwheat, Wild: 0
buckwheat, wild; Preemergence, 125 g ai/ha
  Plant response rating: 0
buckwheat, wild; Preemergence, 250 g ai/ha
  Plant response rating: 0

## O=C1NCC(c2cc(F)c(F)c(F)c2)C1C(=O)Nc1cccc(F)c1F (stereo not drawn) [Compound 48]
bermudagrass; Postemergence, 16 g ai/ha, scale 0 to 100 (0 no effect, 100 complete control)
  Plant response rating, Bermudagrass: 0
bermudagrass; [1]
  Plant response rating, Bermudagrass: 0
bermudagrass; [2]
  Plant response rating, Bermudagrass: 0
bermudagrass; [3]
  Plant response rating, Bermudagrass: 10
bermudagrass; [5]
  Plant response rating, Bermudagrass: 0
bermudagrass; [6]
  Plant response rating, Bermudagrass: 0
bermudagrass; Preemergence, 16 g ai/ha, scale 0 to 100
  Plant response rating, Bermudagrass: 0
bermudagrass; [7]
  Bermudagrass plant response rating: 0

## O=C1NCC(c2cccc(OC(F)(F)F)c2)C1C(=O)Nc1ccccc1F (stereo not drawn) [Compound 69]
bermudagrass; Preemergence, 31 g ai/ha, scale 0 to 100, 0 is no effect and 100 is complete control
  Bermudagrass plant response rating: 35
bermudagrass; [5]
  Plant response rating, Bermudagrass: 35
bermudagrass; [6]
  Plant response rating, Bermudagrass: 50
bermudagrass; Preemergence, 250 g ai/ha
  Plant response rating (scale of 0 to 100), Bermudagrass: 55
